Assay results from patent US10028992B2, “Methods of treating muscular dystrophy” (BOARD OF REGENTS OF THE NEVADA SYSTEM OF HIGHER EDUCATION …, priority 2012, dated 2018).
“And” between values parts separate entries of the source, which are not always exact repeats. Equal values may be shown once.

Tested on: α7 integrin promoter
Assay: muscle cell-based assay: α7βgal+/− myoblasts/myotubes, LacZ reporter, β-galactosidase cleavage of FDG
Parameters: species or system mouse; Results in α7+/− β-galactosidase assay: scale not given here
Conditions: for Results in a α7+/− β-galactosidase assay, Myotubes, 1 uM: compound at 1 uM; for AC50 / EC50 / Emax: Mus musculus; for AC50: log of AC50, given with negative sign, unit of AC50 not given, read-out: Fit Log AC50 (converted); for Fit Curve Class: key not given; for EC50: given as log AC50 (negative values), read-out: Fit LogAC50 (converted); for Results in a α7+/− β-galactosidase assay, Myotubes, 0.5 uM: compound at 0.5 uM; for Results in a α7+/− β-galactosidase assay, Myotubes, 5 uM: compound at 5 uM; for Results in a α7+/− β-galactosidase assay, Myotubes, 10 uM: compound at 10 uM; for Results in a α7+/− β-galactosidase assay, Myotubes, 20 uM: compound at 20 uM; for Results in a α7+/− β-galactosidase assay, Myotubes, 40 uM: compound at 40 uM; for Emax: read-out: Max Response [%]
Method in brief: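 Primary α7βgal+/− mouse myoblasts (LacZ knocked into α7 integrin exon 1, promoter retained), differentiated; promoter activity read as β-galactosidase conversion of non-fluorescent FDG to fluorescein. Hits followed by dose-response, western analysis and myostatin counterscreen.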

[1] = Table 12, fitted activity at zero concentration
[2] = Table 12 Compound data, concentration-response curve fit
[3] = curve fit, activity at zero concentration

O=c1[nH]c(CN2CCCCC2)cc2c1C1(CCCCC1)Cc1ccccc1-2 [drawing 565]
Results in α7+/− β-galactosidase assay (Myoblasts, 0.5 uM): 0.03731 | Results in α7+/− β-galactosidase assay (Myoblasts, 1 uM): −0.01272 | Results in α7+/− β-galactosidase assay (Myoblasts, 5 uM): −0.01947 | Results in α7+/− β-galactosidase assay (Myoblasts, 10 uM): −0.1479 | Results in α7+/− β-galactosidase assay (Myoblasts, 20 uM): 0.1068 | Results in α7+/− β-galactosidase assay (Myoblasts, 40 uM): −0.1465

Cc1[nH]c(/C=C2\C(=O)Nc3ccc([S+](=O)([O-])Cc4c(Cl)cccc4Cl)cc32)c(C)c1C(=O)C1CCCN1CN1CCCC1 (stereo not drawn) [drawing 725]
Result in α7+/− β-galactosidase assay (Myoblasts, 0.5 uM): 0.05199 | Result in α7+/− β-galactosidase assay (Myoblasts, 1 uM): 0.07607 | Result in α7+/− β-galactosidase assay (Myoblasts, 5 uM): −0.1295 | Result in α7+/− β-galactosidase assay (Myoblasts, 10 uM): −0.4121 | Result in α7+/− β-galactosidase assay (Myoblasts, 20 uM): −0.9816 | Result in α7+/− β-galactosidase assay (Myoblasts, 40 uM): −0.9806

COc1cc(/C=C/CN2CCN(Cc3ccc(C)o3)C(CCO)C2)ccc1O (stereo not drawn) [drawing 377]
Results in a α7+/− β-galactosidase assay, Myotubes, 1 uM (Myotubes): 0.1027 and 0.08207

Cc1cc(C)c(/C=C2\C(=O)Nc3ccccc32)[nH]1 [drawing 513]
Results in α7+/− β-galactosidase assay (Myotubes, 0.5 uM): −0.1009 | Results in α7+/− β-galactosidase assay (Myotubes, 1 uM): −0.09355 | Results in α7+/− β-galactosidase assay (Myotubes, 5 uM): 0.09724 | Results in α7+/− β-galactosidase assay (Myotubes, 10 uM): 1.02 | Results in α7+/− β-galactosidase assay (Myotubes, 20 uM): 0.05028 | Results in α7+/− β-galactosidase assay (Myotubes, 40 uM): 0.1378

C/C(=N\OCC(=O)OC(C)C(=O)Nc1ccc(C(N)=O)cc1)c1ccc2c(c1)OCO2 (stereo not drawn) [Compound 70]
AC50 (Table 12): 4.47 µM | Fit HillSlope (Table 12, curve fit): 1.2876 | Fit Zero Activity [%] [1]: −19.1057% | Fit Curve Class (Table 12): 2.1 | Score [2]: 44

COc1ccccc1OCC(=O)N/N=C1/C=C(C)CC1 [Compound 185]
EC50: 10 µM | Score (Table 12 compound data): 42 | Fit Curve Class (curve class number): 2.1 | Fit HillSlope (curve fit): 4.9549 | Fit Zero Activity [%] [3]: −23.4705%

Fc1ccc(-c2ccnn2-c2ccccc2)cc1 [Compound 107]
AC50 (Table 12): 4.47 µM | Fit HillSlope (Table 12, curve fit): 1.4781 | Fit Zero Activity [%] [1]: −19.2206% | Fit Curve Class (Table 12): 2.1 | Score [2]: 43

COc1ccc(C(=O)/C=C2\C(=O)Nc3ccccc32)cc1OC [drawing 420]
Results in a α7+/− β-galactosidase assay, Myotubes, 0.5 uM (Myotubes): −0.03323 | Results in a α7+/− β-galactosidase assay, Myotubes, 1 uM (Myotubes): −0.07984 | Results in a α7+/− β-galactosidase assay, Myotubes, 5 uM (Myotubes): 0.02829 | Results in a α7+/− β-galactosidase assay, Myotubes, 10 uM (Myotubes): 0.263 | Results in a α7+/− β-galactosidase assay, Myotubes, 20 uM (Myotubes): −0.3062 | Results in a α7+/− β-galactosidase assay, Myotubes, 40 uM (Myotubes): −0.184

COc1cc(/C=C2/C(=N)N3C(SC)=NSC3=NC2=O)ccc1OC(=O)c1ccco1 [Compound 30]
AC50 (Table 12): 3.98 µM | Emax: 73.4% | Fit HillSlope (Table 12, curve fit): 2.1876 | Fit Zero Activity [%] [1]: −19.157% | Fit Curve Class (Table 12): 1.1 | Score [2]: 83

CCN(CC(=O)NCc1cccs1)C(=O)COc1ccc(C(N)=O)cc1 [drawing 562]
Results in α7+/− β-galactosidase assay (Myoblasts, 0.5 uM): −0.04485 | Results in α7+/− β-galactosidase assay (Myoblasts, 1 uM): −0.05578 | Results in α7+/− β-galactosidase assay (Myoblasts, 5 uM): −0.03005 | Results in α7+/− β-galactosidase assay (Myoblasts, 10 uM): 0.2509 | Results in α7+/− β-galactosidase assay (Myoblasts, 20 uM): −0.05432 | Results in α7+/− β-galactosidase assay (Myoblasts, 40 uM): −0.02246

Cc1c(C(=O)N2CCCCC2)c(S(=O)(=O)Nc2cccc(Br)c2)c(C)n1C [Compound 155]
EC50: 10 µM | Score (Table 12 compound data): 42 | Fit Curve Class (curve class number): 2.1 | Fit HillSlope (curve fit): 3.99 | Fit Zero Activity [%] [3]: −32.1225%

Nc1ncnc(NCc2ccccc2)c1[N+](=O)[O-] [drawing 486]
Results in a α7+/− β-galactosidase assay, Myotubes, 0.5 uM (Myotubes): 0.008395 | Results in a α7+/− β-galactosidase assay, Myotubes, 1 uM (Myotubes): −0.1282 | Results in a α7+/− β-galactosidase assay, Myotubes, 5 uM (Myotubes): 0.2507 | Results in a α7+/− β-galactosidase assay, Myotubes, 10 uM (Myotubes): −0.3338 | Results in a α7+/− β-galactosidase assay, Myotubes, 20 uM (Myotubes): −0.03158 | Results in a α7+/− β-galactosidase assay, Myotubes, 40 uM (Myotubes): −0.2067

CCc1nc2ccccc2c(C(=O)NCc2ccccc2)c1C [drawing 669]
Results in α7+/− β-galactosidase assay (Myoblasts, 0.5 uM): 0.09233 | Results in α7+/− β-galactosidase assay (Myoblasts, 1 uM): 0.1045 | Results in α7+/− β-galactosidase assay (Myoblasts, 5 uM): 0.3581 | Results in α7+/− β-galactosidase assay (Myoblasts, 10 uM): −0.08672 | Results in α7+/− β-galactosidase assay (Myoblasts, 20 uM): 0.0466 | Results in α7+/− β-galactosidase assay (Myoblasts, 40 uM): 0.1074

CCc1c(C2(O)CCCCC2)[nH]c2ncccc12 [Compound 135]
EC50: 10 µM | Score (Table 12 compound data): 42 | Fit Curve Class (curve class number): 2.1 | Fit HillSlope (curve fit): 4.9549 | Fit Zero Activity [%] [3]: −29.3022%

Cc1cccc(OCc2nc(C#N)c(N3CCCC3)o2)c1 [Compound 2]
Activity at 7.660 μM [%] ** (7.660 μM): 175.022% | AC50 (Table 12): 3.55 µM | Emax: 223% | Fit HillSlope (Table 12, curve fit): 1.4163 | Fit Zero Activity [%] [1]: 3.1995% | Fit Curve Class (Table 12): 1.1 | Score [2]: 91
